Source: ChEMBL document CHEMBL1148587, “Imidazo[1,2-a]pyrimidines as functionally selective and orally bioavailable GABA(A)alpha2/alpha3 binding site agonists for the treatment of anxiety disorders” (J Med Chem, 2006)

Legend:
[1] = target: T1, GABA-A receptor; alpha-3/beta-3/gamma-2 (Homo sapiens, UniProt P18507+P28472+P34903); test: Displacement of [3H]Ro-151788 from human recombinant GABAA alpha3 in combination with beta3gamma2 expressed in L(tk-) cells; assay type: cell-based
T1 sequence (P18507 whole entry): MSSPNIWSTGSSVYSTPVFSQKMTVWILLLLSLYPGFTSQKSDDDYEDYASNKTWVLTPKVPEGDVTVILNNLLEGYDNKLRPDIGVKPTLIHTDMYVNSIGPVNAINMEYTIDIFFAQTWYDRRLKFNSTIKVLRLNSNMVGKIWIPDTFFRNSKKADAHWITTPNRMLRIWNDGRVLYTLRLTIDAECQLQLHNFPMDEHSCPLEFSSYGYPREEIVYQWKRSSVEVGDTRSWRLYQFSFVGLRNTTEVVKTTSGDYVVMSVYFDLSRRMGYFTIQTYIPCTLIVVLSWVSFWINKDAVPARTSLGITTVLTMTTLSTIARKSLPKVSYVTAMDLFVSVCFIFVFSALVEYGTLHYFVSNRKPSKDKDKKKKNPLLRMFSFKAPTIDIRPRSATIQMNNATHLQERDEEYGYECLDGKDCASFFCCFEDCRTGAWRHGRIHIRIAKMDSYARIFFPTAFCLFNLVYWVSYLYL
T1 sequence (P28472 whole entry): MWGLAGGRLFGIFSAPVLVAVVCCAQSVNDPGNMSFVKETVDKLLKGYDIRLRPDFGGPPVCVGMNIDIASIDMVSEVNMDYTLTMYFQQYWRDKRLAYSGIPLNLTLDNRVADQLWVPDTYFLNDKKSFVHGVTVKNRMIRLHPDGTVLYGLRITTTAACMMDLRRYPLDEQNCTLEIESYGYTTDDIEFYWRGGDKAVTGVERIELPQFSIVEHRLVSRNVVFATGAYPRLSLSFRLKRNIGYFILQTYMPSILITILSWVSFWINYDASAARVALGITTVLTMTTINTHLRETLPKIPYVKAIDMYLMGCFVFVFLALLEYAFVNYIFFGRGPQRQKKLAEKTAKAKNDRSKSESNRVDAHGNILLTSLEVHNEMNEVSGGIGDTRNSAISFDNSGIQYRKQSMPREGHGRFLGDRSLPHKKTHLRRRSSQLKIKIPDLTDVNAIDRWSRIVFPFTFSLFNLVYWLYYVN
T1 sequence (P34903 whole entry): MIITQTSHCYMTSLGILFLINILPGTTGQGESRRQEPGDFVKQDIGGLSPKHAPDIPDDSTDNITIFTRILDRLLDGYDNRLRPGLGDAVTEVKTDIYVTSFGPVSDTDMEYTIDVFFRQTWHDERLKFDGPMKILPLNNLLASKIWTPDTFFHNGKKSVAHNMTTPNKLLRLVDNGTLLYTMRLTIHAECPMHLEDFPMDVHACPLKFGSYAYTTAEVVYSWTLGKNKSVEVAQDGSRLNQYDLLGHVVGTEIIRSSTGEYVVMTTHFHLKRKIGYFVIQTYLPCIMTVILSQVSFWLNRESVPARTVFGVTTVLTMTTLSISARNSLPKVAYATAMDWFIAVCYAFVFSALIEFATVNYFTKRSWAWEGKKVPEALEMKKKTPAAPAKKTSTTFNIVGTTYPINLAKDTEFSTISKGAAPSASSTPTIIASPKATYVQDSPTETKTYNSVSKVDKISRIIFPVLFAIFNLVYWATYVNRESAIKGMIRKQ

[2] = target: T2, GABA-A receptor; alpha-5/beta-3/gamma-2 (Homo sapiens, UniProt P18507+P28472+P31644); test: Displacement of [3H]Ro-151788 from human recombinant GABAA alpha5 in combination with beta3gamma2 expressed in L(tk-) cells; assay type: cell-based
T2 sequence (P18507 whole entry): T1 sequence (P18507 whole entry)
T2 sequence (P28472 whole entry): T1 sequence (P28472 whole entry)
T2 sequence (P31644 whole entry): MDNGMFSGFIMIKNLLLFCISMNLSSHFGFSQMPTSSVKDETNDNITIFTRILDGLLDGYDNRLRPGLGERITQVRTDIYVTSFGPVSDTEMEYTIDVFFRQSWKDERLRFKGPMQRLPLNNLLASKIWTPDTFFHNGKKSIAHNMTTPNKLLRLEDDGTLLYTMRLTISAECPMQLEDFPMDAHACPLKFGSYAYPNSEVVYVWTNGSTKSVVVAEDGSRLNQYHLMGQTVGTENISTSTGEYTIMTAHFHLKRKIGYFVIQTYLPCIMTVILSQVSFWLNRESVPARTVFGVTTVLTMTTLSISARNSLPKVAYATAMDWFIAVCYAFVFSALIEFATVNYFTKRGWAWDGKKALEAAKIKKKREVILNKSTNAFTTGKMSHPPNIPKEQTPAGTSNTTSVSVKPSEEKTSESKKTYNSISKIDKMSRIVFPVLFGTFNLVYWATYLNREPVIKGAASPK

[3] = target: T3, GABA-A receptor; alpha-1/beta-3/gamma-2 (Homo sapiens, UniProt P14867+P18507+P28472); test: Displacement of [3H]-Ro15-1788 from human recombinant GABAA alpha1 in combination with beta-3-gamma-2 expressed in L(tk-) cells; assay type: cell-based
T3 sequence (P14867 whole entry): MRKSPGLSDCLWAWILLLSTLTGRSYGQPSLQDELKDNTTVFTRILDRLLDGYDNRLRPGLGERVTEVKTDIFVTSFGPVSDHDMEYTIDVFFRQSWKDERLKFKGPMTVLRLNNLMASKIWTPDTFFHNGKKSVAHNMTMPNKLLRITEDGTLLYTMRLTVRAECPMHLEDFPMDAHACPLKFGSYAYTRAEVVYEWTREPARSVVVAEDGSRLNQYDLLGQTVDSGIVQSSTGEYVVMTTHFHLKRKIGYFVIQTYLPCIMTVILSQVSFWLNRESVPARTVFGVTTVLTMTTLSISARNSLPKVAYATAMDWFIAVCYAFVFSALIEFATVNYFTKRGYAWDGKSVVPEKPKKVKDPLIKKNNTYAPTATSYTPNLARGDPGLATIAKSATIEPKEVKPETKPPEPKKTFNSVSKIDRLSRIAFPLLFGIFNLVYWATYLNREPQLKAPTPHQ
T3 sequence (P18507 whole entry): T1 sequence (P18507 whole entry)
T3 sequence (P28472 whole entry): T1 sequence (P28472 whole entry)

[4] = target: T4, GABA-A receptor; alpha-1/beta-3/gamma-2 (Homo sapiens) (UniProt P14867+P18507+P28472); test: Efficacy against human recombinant GABAA alpha-1 in combination with beta3gamma2 expressed in L(tk-) cells by whole cell patch clamp method; assay type: functional, cell-based
[5] = target: T5, GABA-A receptor; alpha-3/beta-3/gamma-2 (Homo sapiens) (UniProt P18507+P28472+P34903); test: Efficacy against human recombinant GABAA alpha3 in combination with beta-3-gamma-2 expressed in L(tk-) cells by whole cell patch clamp method; assay type: functional, cell-based
[6] = target: T5, GABA-A receptor; alpha-3/beta-3/gamma-2 (Homo sapiens); test: Efficacy against human recombinant GABAA alpha3 in combination with beta-3-gamma-2 expressed in L(tk-) cells by 36Cl ion flux modulation; assay type: functional, cell-based
[7] = target: T4, GABA-A receptor; alpha-1/beta-3/gamma-2 (Homo sapiens); test: Efficacy against human recombinant GABAA alpha1 in combination with beta3gamma2 expressed in L(tk-) cells by 36Cl ion flux modulation; assay type: functional, cell-based
[8] = target: T6, GABA-A receptor; alpha-2/beta-3/gamma-2 (Homo sapiens, UniProt P18507+P28472+P47869); test: Displacement of [3H]-Ro15-1788 from human recombinant GABAA alpha2 in combination with beta3gamma2 expressed in L(tk-) cells; assay type: cell-based
T6 sequence (P18507 whole entry): T1 sequence (P18507 whole entry)
T6 sequence (P28472 whole entry): T1 sequence (P28472 whole entry)
T6 sequence (P47869 whole entry): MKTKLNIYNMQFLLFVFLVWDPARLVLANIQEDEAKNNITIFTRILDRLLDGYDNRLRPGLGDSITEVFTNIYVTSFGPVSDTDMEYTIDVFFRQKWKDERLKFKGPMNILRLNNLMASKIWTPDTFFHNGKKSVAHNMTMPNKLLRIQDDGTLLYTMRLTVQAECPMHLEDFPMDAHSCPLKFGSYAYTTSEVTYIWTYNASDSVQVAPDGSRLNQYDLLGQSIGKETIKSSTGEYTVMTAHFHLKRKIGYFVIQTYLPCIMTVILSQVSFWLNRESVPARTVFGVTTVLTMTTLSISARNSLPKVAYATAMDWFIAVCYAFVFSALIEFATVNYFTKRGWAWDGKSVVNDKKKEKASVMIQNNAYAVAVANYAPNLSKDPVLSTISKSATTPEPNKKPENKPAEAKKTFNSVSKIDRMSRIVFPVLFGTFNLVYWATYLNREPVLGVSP

[9] = target: GABA-A receptor; alpha-5/beta-3/gamma-2 (Homo sapiens) (UniProt P18507+P28472+P31644); test: Efficacy against human recombinant GABAA alpha5 in combination with beta3gamma2 expressed in L(tk-) cells by whole cell patch clamp method; assay type: functional, cell-based
[10] = Plasma clearance in rat; assay type: ADME, organism-based
[11] = Oral bioavailability in rat; assay type: ADME, organism-based; details: in vivo
[12] = Plasma clearance in dog; assay type: ADME, organism-based, Canis lupus familiaris
[13] = Oral bioavailability in dog; assay type: ADME, organism-based, Canis lupus familiaris; details: in vivo

Row | Structure (SMILES) | Ki [1] | Ki [2] | Ki [3] | Efficacy [4] | Efficacy [5] | Efficacy [6] | Efficacy [7] | Ki [8] | Efficacy [9] | clearance [10] | bioavailability [11] | clearance [12] | bioavailability [13]
1 | N#Cc1cccc(F)c1-c1cc(-c2cnc3nc(C(F)(F)F)ccn23)ccc1F | 380 pM | 500 pM | 870 pM | 8% | 33% |  |  |  |  |  |  |  | 
2 | Cc1ccn2c(-c3cccc(-c4cccnc4)c3)cnc2c1 | 16000 pM |  |  |  |  | 9% | -15% |  |  |  |  |  | 
3 | N#Cc1ccccc1-c1cc(-c2cnc3nc(C(F)(F)F)ccn23)ccc1F | 340 pM | 200 pM | 500 pM | 12.4% | 43% |  |  | 520 pM | 14% |  |  |  | 
4 | CC(C)(O)c1ccn2c(-c3ccc(F)c(-c4ccc(F)cc4C#N)c3)cnc2n1 | 1300 pM | 100 pM | 2700 pM |  |  | 45% | 45% | 3300 pM |  |  |  |  | 
5 | Cc1ccn2c(-c3cccc(-c4ccccc4C#N)c3)cnc2c1 | 3600 pM | 1200 pM | 4500 pM | -10% | 57% |  |  |  | -14.6% | 44 mL/min/kg | 2% |  | 
6 | CCn1ncnc1COc1nn2c(-c3ccccc3F)nnc2cc1C(C)(C)C [MK-0777] | 300 pM | 200 pM | 260 pM |  |  |  |  | 300 pM |  |  |  |  | 
7 | N#Cc1c(F)cccc1-c1cc(-c2cnc3nc(C(F)(F)F)ccn23)ccc1F | 7600 pM | 2800 pM | 4600 pM |  |  | 56% | 31% |  |  |  |  |  | 
8 | Cn1cnc(COc2nn3c(-c4ccccc4)nnc3c3c2C2CCC3CC2)n1 |  |  |  | 34% | 55% |  |  |  |  |  |  |  | 
9 | c1ccc(-c2nnc3c4c(c(OCc5ccccn5)nn23)C2CCC4CC2)cc1 | 10000 pM | 1000 pM | 56000 pM | 32% | 45.6% |  |  | 21700 pM |  |  |  |  | 
10 | Cn1ncnc1COc1nn2c(-c3cc(F)ccc3F)nnc2cc1C(C)(C)C | 700 pM | 2300 pM | 800 pM | 2% | 43% |  |  | 700 pM | 39% |  |  |  | 
11 | N#Cc1ccccc1-c1cccc(-c2cnc3nc(C(F)(F)F)ccn23)c1 | 330 pM | 210 pM | 660 pM | 20% | 69% |  |  |  |  |  |  |  | 
12 | N#Cc1ccccc1-c1cccc(-c2cnc3nc(C(F)(F)F)ccn23)c1F | 2600 pM | 940 pM | 2700 pM | 2% | 43% |  |  |  | 18% |  |  |  | 
13 | N#Cc1ccc(F)cc1-c1cc(-c2cnc3nc(C(F)(F)F)ccn23)ccc1F | 620 pM | 260 pM | 650 pM | 34% |  |  |  |  |  |  |  |  | 
14 | N#Cc1ccccc1-c1cc(F)cc(-c2cnc3nc(C(F)(F)F)ccn23)c1 | 14000 pM | 1600 pM | 5300 pM |  |  | 18% | 4% |  |  |  |  |  | 
15 | CCO/N=C(\C)c1ccc2c(c1)ncn2-c1cccc(-c2cccnc2)c1 | 9200 pM | 1600 pM | 1500 pM | 42% | 127% |  |  | 13100 pM | 26% |  |  |  | 
16 | Cc1ccn2c(-c3cccc(-c4ccccc4C#N)c3)cnc2n1 | 370 pM | 120 pM | 390 pM | 7% | 81% |  |  | 780 pM | 1% | 13 mL/min/kg | 42% | 41 mL/min/kg | < 5%
